Results on 31 molecules are retold here after ChEMBL document CHEMBL5634151, “Anti-adipogenic action of a novel oxazole derivative through activation of AMPK pathway” (Eur J Med Chem, 2023).

SMILES strings stand for the structures. Active and inactive are the calls of the source. No cut-off for these calls is given here.

In one series the test system is 3T3-L1. Put plainly: Anti-adipogenic activity in MDI-cocktail differentiated mouse 3T3-L1 pre-adipocyte cells assessed as inhibition of adipogenesis at 30 uM by Oil Red O staining based microscopic analysis. The class given is functional, cell-based.
Settings: not given
For `CC(C)=CCOc1ccc(-c2cnc(-c3cccnc3)o2)cc1`, the result was Active.

A further series deals with 3T3-L1. Put plainly: Cytotoxicity against mouse 3T3-L1 pre-adipocyte cells assessed as reduction in cell viability >20 uM incubated for 48 hrs by MTT assay. Type of series: toxicity, cell-based. The conditions noted are these: 3t3-l1, 48 h. A general note: Formazan colour is commonly taken as a measure of viable cells.
With `FC(F)(F)c1ccc(C[n+]2cccc(-c3ncc(-c4ccccc4)o3)c2)cc1.[Br-]`, the Activity entry is “Toxic”.

Regarding `COc1ccc(-c2cnc(-c3ccc[n+](Cc4ccc(Cl)c(Cl)c4)c3)o2)cc1.[Br-]`, the Activity entry is listed as “Toxic”.

Consider `Clc1ccc(-c2cnc(-c3ccc[n+](Cc4ccc(Cl)c(Cl)c4)c3)o2)cc1.[Br-]`, for which the Activity result is “Toxic”.

`CC(C)=CC[n+]1cccc(-c2ncc(-c3ccc(C)cc3)o2)c1.[Br-]`: the Activity entry is given as “Toxic”.

Take `Cc1ccc(-c2cnc(-c3ccc[n+](Cc4ccc(Cl)cc4)c3)o2)cc1.[Br-]`: the Activity entry is reported as “Toxic”.

`CC(C)=CC[n+]1cccc(-c2ncc(-c3ccc(Cl)cc3)o2)c1.[Br-]`: the Activity entry is recorded as “Toxic”.

Regarding `Clc1ccc(C[n+]2cccc(-c3ncc(-c4ccccc4)o3)c2)cc1.[Br-]`, the Activity result is reported as “Toxic”.

Regarding `Cc1ccc(-c2cnc(-c3ccc[n+](Cc4ccc(C(F)(F)F)cc4)c3)o2)cc1.[Br-]`, the Activity entry is given as “Toxic”.

With `Fc1ccc(C[n+]2cccc(-c3ncc(-c4ccc(Cl)cc4)o3)c2)cc1.[Br-]`, the Activity entry was “Toxic”.

Regarding `Br.O=[N+]([O-])c1ccc(C[n+]2cccc(-c3ncc(-c4ccc(Cl)cc4)o3)c2)cc1`, the Activity result is “Toxic”.

On to `FC(F)(F)c1ccc(C[n+]2cccc(-c3ncc(-c4ccc(Cl)cc4)o3)c2)cc1.[Br-]`, for which the Activity result is given as “Toxic”.

With `Cc1ccc(-c2cnc(-c3ccc[n+](Cc4ccc(F)cc4)c3)o2)cc1.[Br-]`, the Activity result is “Toxic”.

For the molecule `Cc1cccc(C[n+]2cccc(-c3ncc(-c4ccccc4)o3)c2)c1.[Br-]`, the Activity entry is listed as “Toxic”.

Turning to `CC(C)=CCC/C(C)=C\C[n+]1cccc(-c2ncc(-c3ccc(Cl)cc3)o2)c1.[Br-]`, the Activity result is “Toxic”.

On to `Clc1ccc(C[n+]2cccc(-c3ncc(-c4ccc(Cl)cc4)o3)c2)cc1.[Br-]`, for which the Activity entry is reported as “Toxic”.

On to `COc1ccc(-c2cnc(-c3ccc[n+](Cc4ccc(F)cc4)c3)o2)cc1.[Br-]`, for which the Activity entry is given as “Toxic”.

With `COc1ccc(-c2cnc(-c3ccc[n+](Cc4ccc(C(F)(F)F)cc4)c3)o2)cc1.[Br-]`, the Activity entry is “Toxic”.

For the molecule `COc1ccc(-c2cnc(-c3ccc[n+](CC=C(C)C)c3)o2)cc1.[Br-]`, the Activity result is recorded as “Toxic”.

`COc1ccc(-c2cnc(-c3ccc[n+](C/C=C(/C)CCC=C(C)C)c3)o2)cc1.[Br-]`: the Activity entry is listed as “Toxic”.

On to `Br.O=[N+]([O-])c1ccc(C[n+]2cccc(-c3ncc(-c4ccccc4)o3)c2)cc1`, for which the Activity entry is given as “Toxic”.

Take `Clc1ccc(C[n+]2cccc(-c3ncc(-c4ccccc4)o3)c2)cc1Cl.[Br-]`: the Activity entry is reported as “Toxic”.

Consider `Fc1ccc(C[n+]2cccc(-c3ncc(-c4ccccc4)o3)c2)cc1.[Br-]`, for which the Activity result is “Toxic”.

For `Br.COc1ccc(-c2cnc(-c3ccc[n+](Cc4ccc([N+](=O)[O-])cc4)c3)o2)cc1`, the Activity result is recorded as “Toxic”.

With `CC(C)=CCC/C(C)=C\C[n+]1cccc(-c2ncc(-c3ccc(C)cc3)o2)c1.[Br-]`, the Activity result is “Toxic”.

Regarding `CC(C)=CC[n+]1cccc(-c2ncc(-c3ccccc3)o2)c1.[Br-]`, the Activity entry is reported as “Toxic”.

Take `COc1ccc(-c2cnc(-c3ccc[n+](Cc4cccc(C)c4)c3)o2)cc1.[Br-]`: the Activity result is reported as “Toxic”.

On to `Br.Cc1ccc(-c2cnc(-c3ccc[n+](Cc4ccc([N+](=O)[O-])cc4)c3)o2)cc1`, for which the Activity result was “Toxic”.

Regarding `COc1ccc(-c2cnc(-c3ccc[n+](Cc4ccc(Cl)cc4)c3)o2)cc1.[Br-]`, the Activity result is “Toxic”.

For the molecule `Cc1cccc(C[n+]2cccc(-c3ncc(-c4ccc(Cl)cc4)o3)c2)c1.[Br-]`, the Activity result is “Toxic”.

Regarding `Cc1ccc(-c2cnc(-c3ccc[n+](Cc4ccc(Cl)c(Cl)c4)c3)o2)cc1.[Br-]`, the Activity result was “Toxic”.

The next series concerns 3T3-L1. Kind of series: Cytotoxicity against mouse 3T3-L1 pre-adipocyte cells assessed as reduction in cell viability at 20 uM incubated for 48 hrs by MTT assay. The class given is toxicity, cell-based. To be noted: 3t3-l1, 48 h.
For the molecule `COc1ccc(-c2cnc(-c3ccc[n+](Cc4ccc(Cl)c(Cl)c4)c3)o2)cc1.[Br-]`, the Activity result is listed as “Non-Toxic”.

Turning to `Clc1ccc(-c2cnc(-c3ccc[n+](Cc4ccc(Cl)c(Cl)c4)c3)o2)cc1.[Br-]`, the Activity result is “Toxic”.

On to `CC(C)=CC[n+]1cccc(-c2ncc(-c3ccc(C)cc3)o2)c1.[Br-]`, for which the Activity result is given as “Toxic”.

On to `Cc1ccc(-c2cnc(-c3ccc[n+](Cc4ccc(C(F)(F)F)cc4)c3)o2)cc1.[Br-]`, for which the Activity entry was “Non-Toxic”.

On to `CC(C)=CCC/C(C)=C\C[n+]1cccc(-c2ncc(-c3ccc(Cl)cc3)o2)c1.[Br-]`, for which the Activity entry was “Toxic”.

As to `COc1ccc(-c2cnc(-c3ccc[n+](C/C=C(/C)CCC=C(C)C)c3)o2)cc1.[Br-]`, the Activity entry is “Toxic”.

On to `Clc1ccc(C[n+]2cccc(-c3ncc(-c4ccccc4)o3)c2)cc1Cl.[Br-]`, for which the Activity result is “Non-Toxic”.

Take `CC(C)=CCC/C(C)=C\C[n+]1cccc(-c2ncc(-c3ccc(C)cc3)o2)c1.[Br-]`: the Activity entry is on record as “Toxic”.

Consider `Cc1cccc(C[n+]2cccc(-c3ncc(-c4ccc(Cl)cc4)o3)c2)c1.[Br-]`, for which the Activity entry is on record as “Non-Toxic”.

With `Cc1ccc(-c2cnc(-c3ccc[n+](Cc4ccc(Cl)c(Cl)c4)c3)o2)cc1.[Br-]`, the Activity result is on record as “Toxic”.

The subject of a further series is 3T3-L1. Put plainly: Anti-adipogenic activity in MDI-cocktail differentiated mouse 3T3-L1 pre-adipocyte cells assessed as inhibition of adipogenesis at 20 uM by Oil Red O staining based microscopic analysis relative to control. The class given is functional.
Settings: not given
`COc1ccc(-c2cnc(-c3ccc[n+](Cc4ccc(Cl)c(Cl)c4)c3)o2)cc1.[Br-]`: the inhibition – broadly, the percentage by which the read-out fell short of the control – at 20 µM was more than 70%.

As for `Cc1ccc(-c2cnc(-c3ccc[n+](Cc4ccc(C(F)(F)F)cc4)c3)o2)cc1.[Br-]`, the inhibition at 20 µM was more than 70%.

On to `Clc1ccc(C[n+]2cccc(-c3ncc(-c4ccccc4)o3)c2)cc1Cl.[Br-]`, for which the inhibition at 20 µM was more than 70%.

For `Cc1cccc(C[n+]2cccc(-c3ncc(-c4ccc(Cl)cc4)o3)c2)c1.[Br-]`, the inhibition at 20 µM was more than 70%.

The next series relates to 3T3-L1. Put plainly: Anti-adipogenic activity in MDI-cocktail differentiated mouse 3T3-L1 pre-adipocyte cells assessed as inhibition of adipogenesis by Oil Red O staining based microscopic analysis. The class given is functional, cell-based. To be noted: read-out: IC50.
Take `CC(C)=CCOc1ccc(-c2cnc(-c3cccnc3)o2)cc1`: the IC50 came to 103 µM.

The series is the same for the next values; noted with them: read-out: pIC50 (converted).
Take `CC(C)=CCOc1ccc(-c2cnc(-c3cccnc3)o2)cc1`: the IC50 was 104 µM.
